Test results: patent publication US20130252930A1 (BIOMARIN PHARMACEUTICAL INC., priority 2010, published 2013)
pIC50: −log10 of the molar value. Like-named read-outs stand apart in the source and are kept apart here.

Legend:
[1] = target: T1, CYP17 (human testicular microsome) (Homo sapiens, UniProt P05093); assay: CYP17 enzymatic assay (% inhibition at 1 nM) (Biological Example 12); type: biochemical; conditions: compound at 1 nM
T1 construct: using microsomal fraction from human testis (Celsis Cat #S00110) as the enzyme source; tissue Celsis S00110; host or cells: human testis microsomal fraction
T1 sequence (P05093 1-508): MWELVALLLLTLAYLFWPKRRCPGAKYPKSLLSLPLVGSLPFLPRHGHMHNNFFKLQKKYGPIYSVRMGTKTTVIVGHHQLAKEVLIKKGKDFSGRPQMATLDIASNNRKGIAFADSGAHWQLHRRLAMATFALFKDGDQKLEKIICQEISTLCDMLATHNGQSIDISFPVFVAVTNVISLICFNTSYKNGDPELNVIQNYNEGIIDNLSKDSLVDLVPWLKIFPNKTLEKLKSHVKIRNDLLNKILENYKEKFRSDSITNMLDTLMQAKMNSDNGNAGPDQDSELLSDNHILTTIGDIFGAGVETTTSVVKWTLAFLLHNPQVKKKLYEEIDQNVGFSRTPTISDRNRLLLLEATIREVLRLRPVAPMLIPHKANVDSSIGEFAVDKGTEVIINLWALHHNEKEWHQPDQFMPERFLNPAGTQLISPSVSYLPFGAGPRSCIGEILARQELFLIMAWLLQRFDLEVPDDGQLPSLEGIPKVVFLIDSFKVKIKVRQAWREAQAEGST

[2] = target: T2, Cyp21 enzyme (Human HEK 293-Cyp21 stable transfected cells) (Homo sapiens, UniProt P08686); assay: CYP21-HEK293 enzymatic assay (IC50) (Biological Example 11); type: cell-based
T2 construct: expressed in transfected cells
T2 sequence (P08686 1-495): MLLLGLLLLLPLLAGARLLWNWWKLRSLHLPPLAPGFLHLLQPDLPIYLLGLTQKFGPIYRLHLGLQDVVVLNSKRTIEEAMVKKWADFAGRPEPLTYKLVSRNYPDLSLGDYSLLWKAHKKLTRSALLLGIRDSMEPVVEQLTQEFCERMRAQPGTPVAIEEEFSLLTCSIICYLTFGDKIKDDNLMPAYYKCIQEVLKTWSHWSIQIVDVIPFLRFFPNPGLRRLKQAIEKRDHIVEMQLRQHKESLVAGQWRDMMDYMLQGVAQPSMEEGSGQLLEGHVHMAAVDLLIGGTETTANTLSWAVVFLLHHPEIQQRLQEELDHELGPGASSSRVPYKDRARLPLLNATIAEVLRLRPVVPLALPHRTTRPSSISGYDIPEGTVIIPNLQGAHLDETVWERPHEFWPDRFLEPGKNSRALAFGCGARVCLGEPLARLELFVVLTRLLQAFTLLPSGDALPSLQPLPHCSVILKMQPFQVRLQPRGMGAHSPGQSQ

[3] = read-out: Biological Example No. 12: CYP17 enzymatic assay % inhibition at 1 nM
[4] = HEK 293-Cyp21 cells, read-out: Biological Example No. 11: CYP21-HEK293 enzymatic assay IC50
[5] = read-out: CYP17 enzymatic assay % inhibition at 1 nM (Biological Example No. 12)
[6] = HEK 293-Cyp21 cells, read-out: CYP21-HEK293 enzymatic assay IC50 (Biological Example No. 11)
[7] = HEK 293-Cyp21 stable transfected cells, read-out: CYP21-HEK293 enzymatic assay IC50 (Biological Example No. 11)

## C[C@]12CCC(=O)C=C1C(C1CC1)C[C@@H]1[C@@H]2CC[C@]2(C)C(c3cncc(F)c3)=CC[C@@H]12 (stereo partly drawn) [Compound 331, (10R,13S)-6-cyclopropyl-17-(5-fluoropyridin-3-yl)-10,13-dimethyl-6,7,8,9,10,11,12,13,14,15-decahydro-1H-cyclopenta[a]phenanthren-3(2H)-one]
[1]; [3]
  inhibition at 0.001 µM: 10 to 50%
[2]; [4]
  pIC50: < 6.00

## C[C@]12CCC3C(CCC4=CC(=O)CC[C@@]43C)C1=CC=C2c1cncc(Cl)c1 (stereo partly drawn) [Compound 359, (10R,13S)-17-(5-chloropyridin-3-yl)-10,13-dimethyl-6,7,8,9,10,11,12,13-octahydro-1H-cyclopenta[a]phenanthren-3(2H)-one]
[1]; [3]
  inhibition at 0.001 µM: 10 to 50%
[2]; [4]
  pIC50: < 6.00

## C[C@]12CCC(=O)C=C1CCC1C2CC[C@]2(C)C(c3cncc(C(F)F)c3)=CCC12 (stereo partly drawn) [Compound 479, (10R,13S)-17-(5-(difluoromethyl)pyridin-3-yl)-10,13-dimethyl-6,7,8,9,10,11,12,13,14,15-decahydro-1H-cyclopenta[a]phenanthren-3(2H)-one]
[1]; [3]
  inhibition at 0.001 µM: 10 to 50%
[2]; [4]
  pIC50: < 6.00

## C[C@]12CCC(=O)C=C1C(c1ccccc1)CC1C2CC[C@]2(C)C(c3cncc(F)c3)=CCC12 (stereo partly drawn) [Compound 337, (10R,13S)-17-(5-fluoropyridin-3-yl)-10,13-dimethyl-6-phenyl-6,7,8,9,10,11,12,13,14,15-decahydro-1H-cyclopenta[a]phenanthren-3(2H)-one]
[1]; [3]
  inhibition at 0.001 µM: < 10%
[2]; [4]
  pIC50: < 6.00

## CCC1CC2C(CC[C@]3(C)C(c4cccnc4)=CCC23)[C@@]2(C)CCC(=O)C=C12 (stereo partly drawn) [Compound 332, (10R,13S)-6-ethyl-10,13-dimethyl-17-(pyridin-3-yl)-6,7,8,9,10,11,12,13,14,15-decahydro-1H-cyclopenta[a]phenanthren-3(2H)-one]
[1]; [3]
  inhibition at 0.001 µM: 10 to 50%
[2]; [4]
  pIC50: 7.00 to 8.00

## C[C@]12CCC3C(CCC4=CC(=O)CC[C@@]43C)C1=CC=C2c1ccc(F)nc1 (stereo partly drawn) [Compound 355, (10R,13S)-17-(6-fluoropyridin-3-yl)-10,13-dimethyl-6,7,8,9,10,11,12,13-octahydro-1H-cyclopenta[a]phenanthren-3(2H)-one]
[1]; [3]
  inhibition at 0.001 µM: 10 to 50%
[2]; [4]
  pIC50: < 6.00

## CC1(C)C2=CCC3C(CC[C@]4(C)C(c5cccnc5)=CCC34)[C@@]2(C)CC/C1=N\O (stereo partly drawn) [Compound 363, (10R,13S,E)-4,4,10,13-tetramethyl-17-(pyridin-3-yl)-4,7,8,9,10,11,12,13,14,15-decahydro-1H-cyclopenta[a]phenanthren-3(2H)-one oxime]
[1]; [3]
  inhibition at 0.001 µM: < 10%
[2]; [4]
  pIC50: < 6.00

## C[C@]12CCC(=NO)C=C1C(F)CC1C2CC[C@]2(C)C(c3cccnc3)=CCC12 (stereo partly drawn) [Compound 366, (10R,13S)-6-fluoro-10,13-dimethyl-17-(pyridin-3-yl)-6,7,8,9,10,11,12,13,14,15-decahydro-1H-cyclopenta[a]phenanthren-3(2H)-one oxime]
[1]; [3]
  inhibition at 0.001 µM: 10 to 50%
[2]; [4]
  pIC50: < 6.00

## C[C@]12CC[C@H]3[C@@H](CC(C4CC4)C4=CC(=O)CC[C@@]43C)C1=CC=C2c1cccnc1 (stereo partly drawn) [Compound 343, (10R,13S)-6-cyclopropyl-10,13-dimethyl-17-(pyridin-3-yl)-6,7,8,9,10,11,12,13-octahydro-1H-cyclopenta[a]phenanthren-3(2H)-one]
[1]; [3]
  inhibition at 0.001 µM: 10 to 50%
[2]; [4]
  pIC50: < 7.00

## C[C@]12CCC(=O)C=C1C(C1CC1)C[C@@H]1[C@@H]2CC[C@]2(C)C(c3cccnc3)=CC[C@@H]12 (stereo partly drawn) [Compound 339, (10R,13S)-6-cyclopropyl-10,13-dimethyl-17-(pyridin-3-yl)-6,7,8,9,10,11,12,13,14,15-decahydro-1H-cyclopenta[a]phenanthren-3(2H)-one]
[1]; [3]
  inhibition at 0.001 µM: < 10%
[2]; [4]
  pIC50: < 6.00

## CC1C[C@@H]2[C@H](CC[C@]3(C)C(c4cncc(C(F)F)c4)=CC[C@@H]23)[C@@]2(C)C=CC(=O)C=C12 (stereo partly drawn) [Compound 346, (10R,13S)-17-(5-(difluoromethyl)pyridin-3-yl)-6,10,13-trimethyl-6,7,8,9,10,11,12,13,14,15-decahydro-3H-cyclopenta[a]phenanthren-3-one]
[1]; [3]
  inhibition at 0.001 µM: 10 to 50%
[2]; [4]
  pIC50: < 6.00

## C[C@]12CCC3C(CC=C4C=CCC[C@@]43C)C1=CC=C2c1cccnc1 (stereo partly drawn) [Compound 197, 3-((10R,13S)-10,13-dimethyl-2,7,8,9,10,11,12,13-octahydro-1H-cyclopenta[a]phenanthren-17-yl)pyridine]
[1]; [5]
  inhibition at 0.001 µM: 10 to 50%
[2]; [6]
  pIC50: < 6.00

## CCC1CC2C(CC[C@]3(C)C(c4cncc(C(F)F)c4)=CCC23)[C@@]2(C)CCC(=O)C=C12 (stereo partly drawn) [Compound 334, (10R,13S)-17-(5-(difluoromethyl)pyridin-3-yl)-6-ethyl-10,13-dimethyl-6,7,8,9,10,11,12,13,14,15-decahydro-1H-cyclopenta[a]phenanthren-3(2H)-one]
[1]; [3]
  inhibition at 0.001 µM: < 10%
[2]; [4]
  pIC50: < 6.00

## C[C@]12CCC(=NO)C=C1C1(CC1)C[C@@H]1[C@@H]2CC[C@]2(C)C(c3cccnc3)=CC[C@@H]12 [Compound 362, (6cR,8aS)-10,13-dimethyl-17-(pyridin-3-yl)-1,7,8,9,10,11,12,13,14,15-decahydrospiro[cyclopenta[a]phenanthrene-6,1′-cyclopropan]-3(2H)-one oxime]
[1]; [3]
  inhibition at 0.001 µM: 10 to 50%
[2]; [4]
  pIC50: < 7.00

## Cc1cccc(C)c1C(=O)O[C@H]1CC[C@@]2(C)C(=CCC3C4=CC=C(c5cccnc5)[C@@]4(C)CCC32)C1 (stereo partly drawn) [Compound 196, (3S,10R,13S)-10,13-dimethyl-17-(pyridin-3-yl)-2,3,4,7,8,9,10,11,12,13-decahydro-1H-cyclopenta[a]phenanthren-3-yl 2,6-dimethylbenzoate]
[1]; [5]
  inhibition at 0.001 µM: < 10%
[2]; [6]
  pIC50: < 6.00

## C[C@]12CCC3C(CCC45CC4NC(=O)CC[C@]35C)C1CC=C2c1cccnc1 (stereo partly drawn) [Compound 387, (5aR,7aS)-5a,7a-dimethyl-8-(pyridin-3-yl)-1a,2,4,5,5a,5b,6,7,7a,10,10a,10b,11,12-tetradecahydrocyclopenta[5,6]naphtho[2,1-c]cyclopropa[b]azepin-3(1H)-one]
[1]; [3]
  inhibition at 0.001 µM: < 10%
[2]; [4]
  pIC50: < 6.00

## C[C@]12CC[C@@H](NS(=O)(=O)C3CC3)CC1=CC[C@@H]1[C@@H]2CC[C@]2(C)C(c3cccnc3)=CC[C@@H]12 [Compound 228, N-((3R,10R,13S)-10,13-dimethyl-17-(pyridin-3-yl)-2,3,4,7,8,9,10,11,12,13,14,15-dodecahydro-1H-cyclopenta[a]phenanthren-3-yl)cyclopropanesulfonamide]
[1]; [5]
  inhibition at 0.001 µM: 10 to 50%
[2]; [6]
  pIC50: < 6.00

## CC1CC2C3=CC=C(c4ccc(F)nc4)[C@@]3(C)CCC2[C@@]2(C)CCC(=O)C=C12 (stereo partly drawn) [Compound 326, (10R,13S)-17-(6-fluoropyridin-3-yl)-6,10,13-trimethyl-6,7,8,9,10,11,12,13-octahydro-1H-cyclopenta[a]phenanthren-3(2H)-one]
[1]; [3]
  inhibition at 0.001 µM: 10 to 50%
[2]; [4]
  pIC50: < 6.00

## CC1CC2C3=CC=C(c4cncc(F)c4)[C@@]3(C)CCC2[C@@]2(C)CCN(C)C(=O)C=C12 (stereo partly drawn) [Compound 394, (5aR,7aS)-8-(5-fluoropyridin-3-yl)-3,5a,7a,12-tetramethyl-3,4,5,5a,5b,6,7,7a,11,12-decahydrocyclopenta[5,6]naphtho[1,2-d]azepin-2(10bH)-one]
[2]; [7]
  pIC50: < 7.00

## C=C1C[C@H]2C3=CC=C(c4cccnc4)[C@@]3(C)CC[C@@H]2[C@@]2(C)CCC(=O)C=C12 [Compound 348, (10R,13S)-10,13-dimethyl-6-methylene-17-(pyridin-3-yl)-6,7,8,9,10,11,12,13-octahydro-1H-cyclopenta[a]phenanthren-3(2H)-one]
[2]; [7]
  pIC50: 7.00 to 8.00

## C=C1C[C@H]2C3=CC=C(c4cncc(F)c4)[C@@]3(C)CC[C@@H]2[C@@]2(C)CCC(=O)C=C12 [Compound 353, (10R,13S)-17-(5-fluoropyridin-3-yl)-10,13-dimethyl-6-methylene-6,7,8,9,10,11,12,13-octahydro-1H-cyclopenta[a]phenanthren-3(2H)-one]
[2]; [7]
  pIC50: 7.00 to 8.00
